Experimental data taken from article PMC4562501 (Anesthesiology, 2014).
Read-outs that look alike come from different tables or passages of the source.

How the values were obtained:
[1] = oral methadone; for Plasma Cmax/dose: control session, n=16, mean ± SD
clinical = details: both, human, in vivo, po, oral methadone; for Tmax: Plasma Tmax; for half-life: Plasma t½
[2] = Intravenous methadone pharmacokinetics, protocol 2; format: in vivo; details: both, human, plasma
healthy volunteers [3] = experiment: Miosis; format: in vivo, human; details: IV methadone
healthy volunteers [4] = experiment: Miosis; format: in vivo, human
P-gp [5] = details: Caco-2 cells; cited from earlier work
healthy volunteers [6] = experiment: Thermal analgesia; format: in vivo, human; details: IV methadone
healthy volunteers [7] = experiment: Thermal analgesia; details: oral methadone
[8] = racemic methadone; cited from earlier work
P-gp [9] = details: tariquidar 6 mg/kg, humans; cited from earlier work
P-gp [10] = details: well-known P-gp substrate, for comparison; cited from earlier work

## CC=C1N(C)C(C)CC1(c1ccccc1)c1ccccc1 (stereo not shown) [EDDP, 2-ethylidene-1,5-dimethyl-3,3-diphenylpyrrolidine]
[1]
  Increase of EDDP/methadone AUC ratio by cyclosporine: 11-15%

## CCC(=O)C(C[C@H](C)N(C)C)(c1ccccc1)c1ccccc1 [S-Methadone, S-methadone]
clinical; control
  Tmax: 2 ± 0.5 h
clinical; cyclosporine-treated
  Tmax: 4.6 ± 2.3 h
[2]
  AUC(0-t): 282 ± 68 ng·h/mL
[2]; 0.1 mg/kg
  AUC(0-t): 276 ± 47 ng·h/mL
  Cmax: 32.2 ± 7.9 ng/mL

## CC=C1N(C)C(C)CC1(c1ccccc1)c1ccccc1 (stereo not shown) [R-EDDP, 2-ethylidene-1,5-dimethyl-3,3-diphenylpyrrolidine]
clinical; control
  Tmax: 2.5 ± 0.5 h
  half-life: 57 ± 22 h
clinical; cyclosporine-treated
  Tmax: 4.1 ± 1.1 h
  half-life: 73 ± 38 h
[1]; control
  Plasma AUC0-96/dose: 6.7 ± 1.6 ng·h/mL/mg
  Urine %dose eliminated (0-24 h): 4.2 ± 2.3 %dose
  Urine %dose eliminated (0-96 h): 9 ± 4 %dose
[1]
  Plasma Cmax/dose: 0.24 ± 0.09 ng/mL/mg
[1]; cyclosporine-treated
  Plasma AUC0-96/dose: 8.2 ± 1.9 ng·h/mL/mg
  Urine %dose eliminated (0-24 h): 4.2 ± 1.8 %dose
  Urine %dose eliminated (0-96 h): 10 ± 4 %dose

## CCC(=O)C(CC(C)N(C)C)(c1ccccc1)c1ccccc1 (stereo not shown) [methadone]
Healthy volunteers [3]
  Miotic response (average): 2.5 mm
Healthy volunteers [3]; controls
  Peak miosis: 3.1 ± 1.0 mm
Healthy volunteers [3]; cyclosporine-treated subjects
  Peak miosis: 3.2 ± 0.8 mm
Healthy volunteers [4]; oral methadone
  Miotic response (average): 2 mm
Healthy volunteers [4]; oral methadone, controls
  Peak miosis (dose-adjusted): 1.4 ± 0.4 mm/mg
Healthy volunteers [4]; oral methadone, cyclosporine-treated subjects
  Peak miosis (dose-adjusted): 1.3 ± 0.5 mm/mg
P-gp [5]
  Reduction of rhodamine transport: 25%
Healthy volunteers [6]
  Analgesic effect (thermal): minimal analgesic effects
Healthy volunteers [7]
  Maximally tolerated temperature (method of limits): increased the maximally tolerated temperature
  Verbal analog ratings to discrete temperatures: small and brief analgesic effect
[8]
  Median minimal effective (postoperative) analgesia threshold: 31 ng/mL

## CCC(=O)C(C[C@@H](C)N(C)C)(c1ccccc1)c1ccccc1 [R-Methadone, R-methadone]
Healthy volunteers [4]; plasma R-methadone
  Plasma concentration at which miosis was detectable (average): 5 ng/mL

## CC=C1N(C)C(C)CC1(c1ccccc1)c1ccccc1 (stereo not shown) [S-EDDP, 2-ethylidene-1,5-dimethyl-3,3-diphenylpyrrolidine]
[1]; control
  Plasma AUC0-96/dose: 11.6 ± 3.2 ng·h/mL/mg
  Plasma Tmax: 2.3 ± 0.7 h
  Plasma t½: 87 ± 25 h
  Urine %dose eliminated (0-24 h): 7.2 ± 3.8 %dose
  Urine %dose eliminated (0-96 h): 15 ± 6 %dose
[1]
  Plasma Cmax/dose: 0.35 ± 0.17 ng/mL/mg
[1]; cyclosporine-treated
  Plasma AUC0-96/dose: 14.4 ± 3.5 ng·h/mL/mg
  Plasma t½: 102 ± 39 h
  Urine %dose eliminated (0-24 h): 7.4 ± 3.7 %dose
  Urine %dose eliminated (0-96 h): 16 ± 8 %dose
[1]; geometric mean and 90% confidence interval
  Plasma AUC0-96 (EDDP/methadone) ratio (cyclosporine/control): 1.15 (1.04, 1.27)

## COc1cc2c(cc1OC)CN(CCc1ccc(NC(=O)c3cc(OC)c(OC)cc3NC(=O)c3cnc4ccccc4c3)cc1)CC2 [tariquidar]
P-gp [9]
  Increase in brain concentrations of (R)-[11C]verapamil: 2.5 fold
  Increase in brain concentrations of [11C]N-desmethyl-loperamide: 4 fold

## CN(C)C(=O)C(CCN1CCC(O)(c2ccc(Cl)cc2)CC1)(c1ccccc1)c1ccccc1 [loperamide]
P-gp [10]
  Transport ratio: exceeds 10
